Measured values from ChEMBL document CHEMBL5291721, “A preclinical secondary pharmacology resource illuminates target-adverse drug reaction associations of marketed drugs” (Nat Commun, 2023).

What was measured:
[1] = target: T1, Muscarinic acetylcholine receptor M1 (Homo sapiens, UniProt P11229); type: functional, cell-based
T1 sequence (P11229 whole entry): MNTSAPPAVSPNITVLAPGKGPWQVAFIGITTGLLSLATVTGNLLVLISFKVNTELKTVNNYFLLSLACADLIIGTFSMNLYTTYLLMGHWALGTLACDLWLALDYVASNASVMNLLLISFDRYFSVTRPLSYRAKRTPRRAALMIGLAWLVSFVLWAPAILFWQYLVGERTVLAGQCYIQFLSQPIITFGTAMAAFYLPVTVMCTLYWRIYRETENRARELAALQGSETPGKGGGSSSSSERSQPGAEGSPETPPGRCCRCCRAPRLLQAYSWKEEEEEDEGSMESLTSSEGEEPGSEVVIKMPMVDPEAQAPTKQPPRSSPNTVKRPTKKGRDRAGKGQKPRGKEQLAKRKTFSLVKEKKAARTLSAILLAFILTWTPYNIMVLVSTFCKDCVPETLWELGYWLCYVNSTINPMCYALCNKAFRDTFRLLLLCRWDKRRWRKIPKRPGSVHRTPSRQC

Estrogen receptor = target: T2, Estrogen receptor (Homo sapiens, UniProt P03372)
T2 sequence (P03372 whole entry): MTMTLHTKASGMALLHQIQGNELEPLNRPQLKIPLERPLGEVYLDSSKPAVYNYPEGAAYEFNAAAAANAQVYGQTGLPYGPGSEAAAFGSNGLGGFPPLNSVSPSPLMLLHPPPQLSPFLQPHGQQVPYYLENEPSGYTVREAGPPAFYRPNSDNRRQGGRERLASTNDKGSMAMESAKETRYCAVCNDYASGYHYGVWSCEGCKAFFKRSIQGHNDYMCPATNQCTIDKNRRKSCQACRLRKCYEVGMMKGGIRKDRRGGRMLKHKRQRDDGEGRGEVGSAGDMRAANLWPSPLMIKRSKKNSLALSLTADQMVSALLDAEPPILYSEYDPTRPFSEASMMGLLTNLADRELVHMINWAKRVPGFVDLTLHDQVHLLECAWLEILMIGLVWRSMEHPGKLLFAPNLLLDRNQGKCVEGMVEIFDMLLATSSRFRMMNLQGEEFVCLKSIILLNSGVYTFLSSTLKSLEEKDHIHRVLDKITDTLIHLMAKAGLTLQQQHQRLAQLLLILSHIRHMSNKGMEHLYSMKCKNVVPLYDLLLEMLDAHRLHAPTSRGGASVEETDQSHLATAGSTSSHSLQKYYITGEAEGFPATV

Adenosine receptor A2a = Adenosine receptor A2a (Homo sapiens, UniProt P29274)
[2] = target: T3, Alpha-2C adrenergic receptor (Homo sapiens, UniProt P18825); type: functional
T3 sequence (P18825 whole entry): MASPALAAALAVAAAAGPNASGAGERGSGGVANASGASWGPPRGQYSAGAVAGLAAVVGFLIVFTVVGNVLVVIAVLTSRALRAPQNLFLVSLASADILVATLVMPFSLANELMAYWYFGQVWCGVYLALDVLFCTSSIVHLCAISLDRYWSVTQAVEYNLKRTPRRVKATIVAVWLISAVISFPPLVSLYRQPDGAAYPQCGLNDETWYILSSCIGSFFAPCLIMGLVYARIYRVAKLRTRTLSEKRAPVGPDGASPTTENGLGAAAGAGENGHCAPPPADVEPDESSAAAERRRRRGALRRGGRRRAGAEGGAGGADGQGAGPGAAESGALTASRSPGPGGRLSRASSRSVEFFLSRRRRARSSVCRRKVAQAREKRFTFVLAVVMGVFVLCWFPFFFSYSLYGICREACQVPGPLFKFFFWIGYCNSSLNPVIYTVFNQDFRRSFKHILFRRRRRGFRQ

[3] = target: Beta-2 adrenergic receptor (Homo sapiens, UniProt P07550); type: functional, cell-based
Cannabinoid receptor 1 = Cannabinoid receptor 1 (Homo sapiens, UniProt P21554); type: functional, cell-based
[4] = target: T4, 5-hydroxytryptamine receptor 1A (Homo sapiens, UniProt P08908); type: functional, cell-based
T4 sequence (P08908 whole entry): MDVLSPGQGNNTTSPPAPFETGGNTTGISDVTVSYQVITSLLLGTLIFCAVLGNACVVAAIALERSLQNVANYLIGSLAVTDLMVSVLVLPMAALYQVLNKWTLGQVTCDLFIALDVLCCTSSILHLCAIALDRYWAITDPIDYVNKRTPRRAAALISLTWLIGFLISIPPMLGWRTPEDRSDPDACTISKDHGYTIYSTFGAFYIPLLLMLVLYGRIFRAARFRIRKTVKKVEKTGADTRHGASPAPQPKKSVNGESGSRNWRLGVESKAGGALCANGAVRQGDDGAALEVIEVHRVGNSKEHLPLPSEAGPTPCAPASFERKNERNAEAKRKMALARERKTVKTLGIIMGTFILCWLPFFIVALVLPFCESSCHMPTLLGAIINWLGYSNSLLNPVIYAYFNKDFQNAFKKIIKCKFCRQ

[5] = target: 5-hydroxytryptamine receptor 2B (Homo sapiens, UniProt P41595); type: functional, cell-based
[6] = target: Sodium-dependent dopamine transporter (Homo sapiens, UniProt Q01959)
[7] = target: cGMP-inhibited 3',5'-cyclic phosphodiesterase 3A (Homo sapiens, UniProt Q14432); type: functional
Histamine H3 receptor = Histamine H3 receptor (Homo sapiens, UniProt Q9Y5N1)
[8] = target: T5, Alpha-1A adrenergic receptor (Homo sapiens, UniProt P35348); type: functional, cell-based
T5 sequence (P35348 whole entry): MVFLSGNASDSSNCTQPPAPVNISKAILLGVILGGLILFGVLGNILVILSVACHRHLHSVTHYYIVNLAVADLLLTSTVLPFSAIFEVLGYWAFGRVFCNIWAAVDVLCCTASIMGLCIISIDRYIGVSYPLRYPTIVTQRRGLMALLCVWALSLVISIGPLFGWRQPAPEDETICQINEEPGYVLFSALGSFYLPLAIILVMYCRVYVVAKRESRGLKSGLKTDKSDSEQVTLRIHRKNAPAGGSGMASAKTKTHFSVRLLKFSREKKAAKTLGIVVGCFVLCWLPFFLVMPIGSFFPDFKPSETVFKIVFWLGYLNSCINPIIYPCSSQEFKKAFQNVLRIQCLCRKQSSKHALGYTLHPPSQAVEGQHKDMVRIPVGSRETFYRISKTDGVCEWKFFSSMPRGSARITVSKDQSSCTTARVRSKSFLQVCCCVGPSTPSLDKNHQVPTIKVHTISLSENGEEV
Also: assay procedure not described here.

Beta-2 adrenergic receptor, sequence (P07550 whole entry): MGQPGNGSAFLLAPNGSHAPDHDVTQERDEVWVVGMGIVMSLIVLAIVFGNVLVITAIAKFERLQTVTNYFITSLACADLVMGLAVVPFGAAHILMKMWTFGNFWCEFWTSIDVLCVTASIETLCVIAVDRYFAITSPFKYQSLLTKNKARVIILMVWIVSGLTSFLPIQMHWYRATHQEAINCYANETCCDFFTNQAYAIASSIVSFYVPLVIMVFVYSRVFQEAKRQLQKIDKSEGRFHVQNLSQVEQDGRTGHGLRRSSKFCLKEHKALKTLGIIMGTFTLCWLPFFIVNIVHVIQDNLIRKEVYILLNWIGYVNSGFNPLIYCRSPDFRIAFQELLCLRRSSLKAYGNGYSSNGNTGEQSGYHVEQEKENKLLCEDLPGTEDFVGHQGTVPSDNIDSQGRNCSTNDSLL
Histamine H3 receptor, sequence (Q9Y5N1 whole entry): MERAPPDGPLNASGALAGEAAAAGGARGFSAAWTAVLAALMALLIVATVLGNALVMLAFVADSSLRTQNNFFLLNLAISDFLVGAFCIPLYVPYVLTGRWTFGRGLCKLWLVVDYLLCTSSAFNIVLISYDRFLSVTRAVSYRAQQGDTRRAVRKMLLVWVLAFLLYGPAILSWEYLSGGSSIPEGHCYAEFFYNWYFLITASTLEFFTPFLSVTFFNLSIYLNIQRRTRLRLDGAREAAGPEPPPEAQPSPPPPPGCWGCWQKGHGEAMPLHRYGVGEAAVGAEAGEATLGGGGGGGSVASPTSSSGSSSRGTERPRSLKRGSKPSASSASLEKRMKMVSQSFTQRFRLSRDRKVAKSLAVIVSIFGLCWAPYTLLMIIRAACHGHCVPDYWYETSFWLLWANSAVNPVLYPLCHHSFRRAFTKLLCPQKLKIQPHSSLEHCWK
Sodium-dependent dopamine transporter, sequence (Q01959 whole entry): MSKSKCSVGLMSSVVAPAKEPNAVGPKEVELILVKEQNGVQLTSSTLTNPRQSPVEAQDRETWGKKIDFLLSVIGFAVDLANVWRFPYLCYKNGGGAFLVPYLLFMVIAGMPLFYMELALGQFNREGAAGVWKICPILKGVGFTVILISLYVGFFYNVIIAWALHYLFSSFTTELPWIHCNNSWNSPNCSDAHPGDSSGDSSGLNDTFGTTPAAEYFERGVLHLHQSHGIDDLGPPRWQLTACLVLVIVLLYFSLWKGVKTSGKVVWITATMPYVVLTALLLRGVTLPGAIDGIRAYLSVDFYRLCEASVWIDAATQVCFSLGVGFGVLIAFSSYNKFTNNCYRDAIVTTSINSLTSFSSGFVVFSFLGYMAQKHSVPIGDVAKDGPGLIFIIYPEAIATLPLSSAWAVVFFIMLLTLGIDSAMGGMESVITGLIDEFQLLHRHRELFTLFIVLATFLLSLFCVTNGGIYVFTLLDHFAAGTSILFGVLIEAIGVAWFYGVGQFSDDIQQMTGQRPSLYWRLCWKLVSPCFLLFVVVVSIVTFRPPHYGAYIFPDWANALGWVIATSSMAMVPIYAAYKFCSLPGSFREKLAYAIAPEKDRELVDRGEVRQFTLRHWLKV
Adenosine receptor A2a, sequence (P29274 whole entry): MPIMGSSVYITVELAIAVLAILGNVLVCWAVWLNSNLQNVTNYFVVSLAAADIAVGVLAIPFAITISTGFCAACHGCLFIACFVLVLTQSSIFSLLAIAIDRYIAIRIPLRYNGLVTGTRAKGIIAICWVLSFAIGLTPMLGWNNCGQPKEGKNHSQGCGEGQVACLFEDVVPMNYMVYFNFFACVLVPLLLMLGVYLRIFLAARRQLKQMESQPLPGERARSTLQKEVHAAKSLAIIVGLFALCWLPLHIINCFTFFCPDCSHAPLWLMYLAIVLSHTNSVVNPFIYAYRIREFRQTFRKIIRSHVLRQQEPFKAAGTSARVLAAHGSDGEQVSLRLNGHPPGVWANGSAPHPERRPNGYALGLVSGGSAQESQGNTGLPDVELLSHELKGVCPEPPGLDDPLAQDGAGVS
5-hydroxytryptamine receptor 2B, sequence (P41595 whole entry): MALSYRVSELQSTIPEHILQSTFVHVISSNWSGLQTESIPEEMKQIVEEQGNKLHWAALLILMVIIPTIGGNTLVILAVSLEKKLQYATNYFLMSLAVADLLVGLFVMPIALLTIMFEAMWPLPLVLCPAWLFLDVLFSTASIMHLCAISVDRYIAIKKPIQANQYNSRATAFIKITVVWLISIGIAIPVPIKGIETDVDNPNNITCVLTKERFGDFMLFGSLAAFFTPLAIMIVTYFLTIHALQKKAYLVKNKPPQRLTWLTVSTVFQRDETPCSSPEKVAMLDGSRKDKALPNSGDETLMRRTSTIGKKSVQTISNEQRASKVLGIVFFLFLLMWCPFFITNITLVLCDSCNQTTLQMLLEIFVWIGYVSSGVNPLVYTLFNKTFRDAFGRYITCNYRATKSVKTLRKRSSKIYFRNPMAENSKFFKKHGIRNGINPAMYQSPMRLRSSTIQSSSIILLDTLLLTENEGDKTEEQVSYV
Cannabinoid receptor 1, sequence (P21554 whole entry): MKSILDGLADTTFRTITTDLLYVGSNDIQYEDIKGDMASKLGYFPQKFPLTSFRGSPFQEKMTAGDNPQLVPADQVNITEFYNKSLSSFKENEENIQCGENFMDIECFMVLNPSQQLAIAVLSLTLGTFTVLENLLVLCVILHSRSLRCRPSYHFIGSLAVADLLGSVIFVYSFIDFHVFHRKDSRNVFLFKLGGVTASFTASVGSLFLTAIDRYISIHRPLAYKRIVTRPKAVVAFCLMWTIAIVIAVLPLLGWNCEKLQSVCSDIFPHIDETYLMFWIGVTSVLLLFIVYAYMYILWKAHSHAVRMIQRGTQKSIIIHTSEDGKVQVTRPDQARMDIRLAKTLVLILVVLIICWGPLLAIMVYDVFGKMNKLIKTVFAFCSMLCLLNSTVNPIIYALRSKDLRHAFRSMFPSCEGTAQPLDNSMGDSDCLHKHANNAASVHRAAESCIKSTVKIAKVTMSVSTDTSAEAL
cGMP-inhibited 3',5'-cyclic phosphodiesterase 3A, sequence (Q14432 whole entry): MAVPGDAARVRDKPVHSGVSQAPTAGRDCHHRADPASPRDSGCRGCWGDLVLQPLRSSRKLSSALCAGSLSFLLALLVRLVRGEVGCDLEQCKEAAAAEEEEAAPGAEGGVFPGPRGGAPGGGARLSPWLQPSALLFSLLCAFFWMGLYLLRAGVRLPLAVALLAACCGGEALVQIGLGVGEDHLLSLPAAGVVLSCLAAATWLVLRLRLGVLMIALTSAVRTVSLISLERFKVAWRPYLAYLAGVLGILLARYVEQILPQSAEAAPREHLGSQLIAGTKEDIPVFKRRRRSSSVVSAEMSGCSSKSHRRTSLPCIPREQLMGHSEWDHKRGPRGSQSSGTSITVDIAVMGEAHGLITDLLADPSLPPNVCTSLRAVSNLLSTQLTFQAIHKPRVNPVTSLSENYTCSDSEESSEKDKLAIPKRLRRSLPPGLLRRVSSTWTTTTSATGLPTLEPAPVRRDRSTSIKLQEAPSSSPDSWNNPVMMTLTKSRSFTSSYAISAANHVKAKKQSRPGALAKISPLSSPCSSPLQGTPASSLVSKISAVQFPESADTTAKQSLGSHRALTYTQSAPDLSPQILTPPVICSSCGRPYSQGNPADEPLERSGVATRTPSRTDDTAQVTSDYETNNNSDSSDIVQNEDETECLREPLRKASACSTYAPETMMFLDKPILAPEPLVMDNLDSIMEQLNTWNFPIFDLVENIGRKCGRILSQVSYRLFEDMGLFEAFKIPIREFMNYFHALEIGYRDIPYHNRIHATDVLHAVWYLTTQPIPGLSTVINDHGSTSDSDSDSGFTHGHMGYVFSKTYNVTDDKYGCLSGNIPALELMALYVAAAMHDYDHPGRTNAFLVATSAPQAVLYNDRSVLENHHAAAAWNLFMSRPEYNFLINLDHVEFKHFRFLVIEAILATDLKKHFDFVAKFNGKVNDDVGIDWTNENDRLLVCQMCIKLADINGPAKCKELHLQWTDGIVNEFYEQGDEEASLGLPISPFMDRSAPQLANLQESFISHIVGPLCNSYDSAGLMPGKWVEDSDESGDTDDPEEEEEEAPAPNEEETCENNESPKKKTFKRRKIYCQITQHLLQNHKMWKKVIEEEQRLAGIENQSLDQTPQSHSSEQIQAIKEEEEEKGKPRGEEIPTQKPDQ

Structure (SMILES)	AC50 [1] [µM]	AC50 (Estrogen receptor) [µM]	AC50 (Adenosine receptor A2a) [µM]	AC50 [2] [µM]	AC50 [3] [µM]	AC50 (Cannabinoid receptor 1) [µM]	AC50 [4] [µM]	AC50 [5] [µM]	AC50 [6] [µM]	AC50 [7] [µM]	AC50 (Histamine H3 receptor) [µM]	AC50 [8] [µM]
CC(C)COc1ccc(CNC(=O)N(Cc2ccc(F)cc2)C2CCN(C)CC2)cc1 [PIMAVANSERIN]	29.9	> 30	–	–	–	–	–	–	–	–	–	–
CC(C)(C)C(=O)NCCCC(=O)O [PIVAGABINE]	> 30	> 30	–	–	–	–	–	–	–	–	–	–
CC(C)C[C@H](CN)CC(=O)O [PREGABALIN]	–	–	> 30	> 30	> 30	> 30	> 30	> 30	> 30	> 30	> 30	–
CC(C)[N+](C)(CCOC(=O)C1c2ccccc2Oc2ccccc21)C(C)C [PROPANTHELINE]	> 30	> 30	–	–	–	–	–	–	–	–	–	–
CN(C)C(=O)c1nc(CNC(=O)CN)n(-c2ccc(Cl)cc2C(=O)c2ccccc2Cl)n1 [RILMAZAFONE]	> 30	> 30	–	–	–	–	–	–	–	–	–	–
CCCN(CCC)CCc1cccc2c1CC(=O)N2 [ROPINIROLE]	–	–	> 30	> 30	> 30	> 30	> 30	–	> 30	> 30	9.25	> 30
CCCN(CCc1cccs1)[C@H]1CCc2c(O)cccc2C1 [ROTIGOTINE]	–	–	> 30	0.4	> 30	20	0.67	–	1.3	> 30	> 30	–
NC(=O)NS(=O)(=O)c1ccc(N)cc1 [SULFACARBAMIDE]	> 30	> 30	–	–	–	–	–	–	–	–	–	–
Cn1c(=O)c2[nH]cnc2n(C)c1=O [THEOPHYLLINE]	–	–	–	> 10	> 30	> 30	> 10	> 10	> 30	–	> 10	> 30
CN1CCN(CCCN2c3ccccc3Sc3ccc(S(=O)(=O)N(C)C)cc32)CC1 [THIOPROPERAZINE]	–	–	–	2.6	> 30	> 30	–	> 30	–	> 30	–	1
CC1(C)O[C@@H]2[C@@H](CO[C@@]3(COS(N)(=O)=O)OC(C)(C)O[C@@H]23)O1 [TOPIRAMATE]	> 30	> 30	> 30	> 10	–	> 30	> 10	> 10	> 10	> 30	> 10	–
NCCc1ccc(O)cc1 [TYRAMINE]	> 30	> 30	–	–	–	–	–	–	–	–	–	–
